According to patent publication US20120196766A1, “Therapeutic Use of Farnesyltransferase Inhibitors and Methods of Monitoring the Efficacy Thereof” (priority 2004, published 2012):

Assays:
human PBMC = experiment: LPS-induced cytokine production in human PBMC; format: cell-based
Experimental: Human IL-6, IL18, IL1β, MCP-1, MMP-9, and mouse IL-6, IL18, TNFα, MCP-1 and IL-1β were measured with ELISA kits (R&D Systems) according to the manufacturer's instructions.
Heparinized human blood (25 ml) from a healthy donor was overlaid into a 50 ml conical tubes containing 20 ml Ficoll-Paque, and centrifuged for 20 min at 2000 rpm at room temperature and then allowed to stop without using the brake on the centrifuge. The upper layer was aspirated, leaving the mononuclear cell layer undisturbed at the interface. Cells were carefully transferred the to a new […] conical tube. The conical tube was filled with PBS, mixed and centrifuged at 1500 rpm for 15 minutes at room temperature. The supernatant was carefully and completely removed. The cell pellet was resupended in 50 ml of PBS and centrifuged at 1500 rpm for 5 minutes. This wash step was repeated once more. The cells were counted and resuspended cells at 1.7×10^6/ml in low-endotoxin RPMI1640/10% FBS.
Human PBMC (180 μl at 1.7×10^6/ml) were pipetted into each well of a 96-well plate. […] Cells were incubated at 37° C., under 5% CO2 for 1 hour, then 10 μl LPS (diluted in medium) were added per well to reach a final concentration of 10 ng/ml. Cells were cultured at 37° C., under 5% CO2. Supernatants were collected at 16 hours, 24 hours and 40 hours of LPS treatment, and IL-6 secretion was quantified.

[1] = tested on: NF-κB-LH transfected HEK293 cells; experiment: NF-κB reporter gene assay; format: cell-based; settings: tipifarnib 2 or 5 μM for 18 hours, TNF-α 10 ng/ml for 4 hours
Experimental: HEK293 cells were transfected with the NF-κB-LH plasmid (Biomyx) using Lipofectamine 2000, and stable clones were selected by culture in hygromycin (176 μg/ml). The resulting NF-κB-LH-transfected cells were seeded in DMEM/10% FCS in 96-well plates for use in luciferase reporter assays. On the following day, cells were treated with tipifarnib for 18 hours, then stimulated with TNF-α (10 ng/ml) for 4 hours, after which NF-κB activity was measured using the Steady-Glo® luciferase reporter assay system (Promega). NF-κB activation was calculated as the fold-induction by TNF-α over unstimulated control samples.

[2] = tested on: dextran sodium sulphate-induced colitis; settings: WO 02/43733; cited from earlier work

SMILES: Cn1cncc1C(N)(c1ccc(Cl)cc1)c1ccc2c(c1)c(-c1cccc(Cl)c1)cc(=O)n2C (single isomer, unassigned; (+)) [tipifarnib, (+)-6-[amino(4-chlorophenyl)(1-methyl-1H-imidazol-5-yl)methyl]-4-(3-chlorophenyl)-1-methyl-2(1H)-quinolinone]
- LPS-induced IL-6 production (human PBMC; tipifarnib 2 μM, LPS 10 ng/ml, 10% FBS): no effect
- IL-6 mean value lower than in absence of compound (human PBMC; tipifarnib 5 μM, 24 hours, not statistically significant (P=0.104)): approximately 40%
- LPS-induced IL-6 production (human PBMC; tipifarnib 5 μM, after 16 and 40 hours): highly significant inhibition
- TNF-α induced NF-κB activity [1]: not inhibited
- disease scores [2]: reduction of disease scores
